Experimental data: patent publication US10624893B2 (priority 2016, dated 2020)
In brackets after ≈: the same amount, converted by molar mass. Read-outs that look alike come from different tables or passages of the source.

System: M. tuberculosis drug resistant strains
Assay: microbe, parasite or virus in culture
Type: cell-based
Settings: Mycobacterium tuberculosis, cholesterol medium

Cc1cccc(OC2CCN(Cc3cc(=O)[nH]c(=O)[nH]3)CC2)c1C [Test Compound, 6-((4-(2,3-dimethylphenoxy)piperidin-1-yl)methyl)pyrimidine-2,4(1H,3H)-dione]
MIC (ERDMAN, strain Erdman, DS, read-out: MIC 1): 0.78 µM (≈ 0.257 µg/mL) | MIC (ERDMAN, strain Erdman, DS, read-out: MIC 2): 0.6 µM (≈ 0.198 µg/mL) | MIC (H37RV, strain H37Rv, DS, read-out: MIC 2): 0.39 µM (≈ 0.128 µg/mL) | MIC ([…], read-out: MIC 2): 0.6 µM (≈ 0.198 µg/mL) | MIC (strain CDC1551, DS, read-out: MIC 1): 0.78 µM (≈ 0.257 µg/mL) | MIC (strain CDC1551, DS, read-out: MIC 2): 0.39 µM (≈ 0.128 µg/mL) | MIC (strain HN878, DS, read-out: MIC 1): 0.78 µM (≈ 0.257 µg/mL) | MIC (strain HN878, DS, read-out: MIC 2): 0.6 µM (≈ 0.198 µg/mL) | MIC (strain K03b00DS, DS, read-out: MIC 1): 0.3 µM (≈ 0.0988 µg/mL) | MIC (strain K03b00DS, DS, read-out: MIC 2): 0.2 µM (≈ 0.0659 µg/mL) | MIC (strain K04b00DS, DS, read-out: MIC 1): 0.39 µM (≈ 0.128 µg/mL) | MIC (strain K07b00DS, DS, read-out: MIC 1): 0.6 µM (≈ 0.198 µg/mL) | MIC (strain K07b00DS, DS, read-out: MIC 2): 0.39 µM (≈ 0.128 µg/mL) | MIC (strain K08b00DS, DS, read-out: MIC 1): 0.6 µM (≈ 0.198 µg/mL) | MIC (strain K08b00DS, DS, read-out: MIC 2): 0.39 µM (≈ 0.128 µg/mL) | MIC (strain K11b00DS, DS, read-out: MIC 2): 0.78 µM (≈ 0.257 µg/mL) | MIC (strain K12b00DS, DS, read-out: MIC 1): 0.2 µM (≈ 0.0659 µg/mL) | MIC (strain K12b00DS, DS, read-out: MIC 2): 0.6 µM (≈ 0.198 µg/mL) | MIC (strain K13b00DS, DS, read-out: MIC 1): 0.78 µM (≈ 0.257 µg/mL) | MIC (strain K13b00DS, DS, read-out: MIC 2): 0.6 µM (≈ 0.198 µg/mL) | MIC (strain K14b00DS, DS, read-out: MIC 2): 0.6 µM (≈ 0.198 µg/mL) | MIC (strain K16b00DS, DS, read-out: MIC 1): 0.39 µM (≈ 0.128 µg/mL) | MIC (strain K16b00DS, DS, read-out: MIC 2): 0.2 µM (≈ 0.0659 µg/mL) | MIC (strain K35b00DS, DS, read-out: MIC 1): 0.6 µM (≈ 0.198 µg/mL) | MIC (strain K35b00DS, DS, read-out: MIC 2): 0.39 µM (≈ 0.128 µg/mL) | MIC (strain NIH_G1DS, DS, read-out: MIC 1): 0.78 µM (≈ 0.257 µg/mL) | MIC (strain NIH_G1DS, DS, read-out: MIC 2): 0.39 µM (≈ 0.128 µg/mL) | MIC (strain NIH_G12, read-out: MIC 1): 0.78 µM (≈ 0.257 µg/mL) | MIC (strain NIH_G13, read-out: MIC 1): 0.6 µM (≈ 0.198 µg/mL)
